Tested on: iMSCs
Assay: iMSC expansion, seeded at 1000 cells/well, day 10 morphology and cell number
Assay type: cell-based
Protocol: Cryopreserved iMSCs (RC01005, Nuwacell Co., Ltd.) were seeded in 6-well plates at 1000 cells/well in M1 medium to thaw the cells. The medium was replaced 24 h later with 2 ml/well of the following medium: M1; or M2 (5% HPLT) further supplemented with or without one or more growth factors (F: FGF2 (10 ng/ml, Nuwacell Co., Ltd.); P: PDFG-BB (10 ng/ml, Cat. No.: 100-14B-100, Peprotech); T: TGFβ1 (1 ng/ml, Cat. No.: 100-21, Peprotech)) in the absence or presence of hydrocortisone (1 μM, Cat. No.: 4098, Tocris). […] The medium was changed with the same medium every three days. On day 10 of culture, the cells were digested by solase (RP01021, Nuwacell Co., Ltd.) for 3 min and collected, and then centrifugated, and with the supernatant removed, resuspended in the corresponding medium, and the number of iMSC cells was counted by cell viability analyzer (Vi-CELLTMXR, BECKMAN COULTER) (FIG. 5).

Molecule | effect of addition on iMSC proliferation (Example 5, hydrocortisone 1 μM added to M2 (5% HPLT)) | effect of addition to M3 on iMSC growth (Example 13, 4 mg/L dialyzed HSA, 25 μg/ml heparin sodium, FIG. 13)
C[C@]12CCC(=O)C=C1CC[C@@H]1[C@@H]2[C@@H](O)C[C@@]2(C)[C@H]1CC[C@]2(O)C(=O)CO [hydrocortisone] | could promote the iMSC proliferation | 
heparin sodium |  | could further promote iMSC growth
